The text below walks through data of paper PMC8064475, “Synthesis of Biobased Phloretin Analogues: An Access to Antioxidant and Anti-Tyrosinase Compounds for Cosmetic Applications” (Antioxidants, 2021).

“Also recorded” adds a separate entry of the source. Some results are limits rather than exact numbers.

The nature of data set [1]: Photostability: absorbance loss after UV irradiation. In kind it is physicochemical. As to conditions: 10 µM in ethanol; 1 h irradiation at 300 nm; absorbance at λmax before vs after. How it is done: (§1) UV-Vis spectra were recorded at 10 µM in ethanol on a Cary 60 UV-Vis spectrophotometer by Agilent (Wilmington, DE, USA) in a 1 cm quartz cuvette. The absorbance loss was evaluated by comparison of absorbances at the λmax before and after 1 h of irradiation into a Rayonet® RPR-200 (λ = 300 nm, P = 8.32 W.m^−2, stirring, T = 35 °C) (SNE Ultraviolet Co. Branford, CT, USA) using 14 RPR-3000A lamps.

A further data set addresses mushroom tyrosinase. The data set can be described thus: Mushroom tyrosinase inhibition assay. As to conditions: tyrosine substrate; ammonium formate buffer pH 6.4; 37 °C; dopachrome at 420 nm. In kind it is biochemical. How it is done:
Tyrosinase inhibition activity was evaluated using the method used by Peyrot et al.. […] Then, 20 µL of tyrosine at 4.42 mM in ammonium formate buffer was added. […] IC50 values, corresponding to the concentration required to inhibit 50% of tyrosinase activity, were obtained using GraphPad Prism® software version 6.01.

Data set [2] in a line: DPPH radical scavenging assay. In kind it is biochemical. To be noted: in ethanol; DPPH 200 µM; read at 520 nm over 7.5 h; read-out: EC50 for DPPH inhibition. How it is done: The radical scavenging activity of all compounds was tested through 2,2-diphenyl-1-picryhydrazyl (DPPH) assay which determines the EC50 values as previously described. The test consists of adding 190 µL of DPPH solution (200 µM) in ethanol to 10 µL of potential antiradical molecule solution at different concentrations (from 800 to 12.5 µM). The reaction was carried out in 96-well microplates and the disappearance of DPPH radicals was monitored at 520 nm every 5 min during 7.5 h in a multiplate Biotek (Winooski, VT, USA), Epoch 2 spectrophotometer. The EC50 values, corresponding to the concentration needed to reduce half of the initial population of DPPH radicals, were provided by the crossing point of the curves of %DPPH and %reduced DPPH. Curves dots were obtained using an average of the last six measurements for each concentration in Regressi® software version 3.99.
A general note: DPPH is a stable violet radical that fades when it is reduced.

Data set [3] can be described thus: UV-Vis spectra at 10 µM in ethanol. To be noted: 1 cm quartz cuvette, band I. In kind it is physicochemical. The method, then:
as §1

As a reminder, the IC50 is the concentration at which inhibition is half-maximal. For orientation: EC50 means the midpoint of the concentration-response curve. In data set [1], `COc1cc(C(=O)/C=C/c2ccc(O)cc2)ccc1O` [a6, 4,4′-dihydroxy-3′-methoxy-chalcone] came in with a Loss of absorbance of 16.1%. The IC50 against mushroom tyrosinase is 140 ± 10 µM. In data set [2], the concentration for a half-maximal effect (EC50) is more than 80 µM.

As for `COc1cc(/C=C/C(=O)c2ccc(O)c(OC)c2)ccc1O` [a10, 4,4′-dihydroxy-3,3′-dimethoxy-chalcone], on mushroom tyrosinase, inhibition was half-maximal at 1800 ± 90 µM (IC50). For the same compound, the EC50 in data set [2] is 43.5 µM.

As to `O=C(CCc1ccc(O)cc1)c1ccc(O)c(O)c1` [b3, 3′,4,4′-trihydroxy-dihydrochalcone], the Loss of absorbance result in data set [1] is given as “Negative loss of absorbance; also recorded: higher absorbance higher after 1 h of irradiation”. The compound also displayed an IC50 on mushroom tyrosinase of more than 10000 µM. Further, the concentration for a half-maximal effect (EC50) in data set [2] turned out to be 16 µM.

Regarding `O=C(/C=C/c1ccc(O)cc1)c1ccc(O)c(O)c1` [a3, 3′,4,4′-trihydroxy-chalcone], at mushroom tyrosinase, the concentration for half-maximal inhibition (IC50) was more than 10000 µM and the “IC50 for mushroom tyrosinase inhibition” value is “did not show any activity”. Further, the concentration giving a half-maximal response (EC50) in data set [2] worked out at 15.5 µM.

`O=C(/C=C/c1ccc(O)cc1)c1ccc(O)cc1` [a1, 4,4′-dihydroxy-chalcone] returned a Loss of absorbance in data set [1] of 77.6%. For the same compound, it took 100 ± 10 µM to reach half-maximal inhibition at mushroom tyrosinase (IC50). In data set [3], the Maximal absorbance amounted to 0.65. The EC50 in data set [2] is more than 80 µM.

`COc1ccc(C(=O)CC(=O)c2ccc(C(C)(C)C)cc2)cc1` [Avobenzone, avobenzone, reference compound]: in data set [1], the Loss of absorbance is listed as 0.6%. In data set [3], this compound yielded a Maximal absorbance of 0.37.

In the case of `O=C(CCc1ccc(O)c(O)c1)c1ccc(O)c(O)c1` [b4, 3,3′,4,4′-tetrahydroxy-dihydrochalcone], the Loss of absorbance entry in data set [1] was “Negative loss of absorbance; also recorded: higher absorbance higher after 1 h of irradiation”. Moreover, the IC50 at mushroom tyrosinase was more than 10000 µM. Also, the EC50 in data set [2] was 15 µM.

At mushroom tyrosinase, `COc1cc(C(=O)CCc2ccc(O)cc2)ccc1O` [b6, 4,4′-dihydroxy-3′-methoxy-dihydrochalcone] displayed an IC50 of more than 10000 µM. Further, in data set [2], the half-maximal effective concentration (EC50) is more than 80 µM.

Turning to `COc1cc(C(=O)CCc2cc(OC)c(O)c(OC)c2)ccc1O` [b11, 4,4′-dihydroxy-3,3′,5-trimethoxy-dihydrochalcone], in data set [1], the Loss of absorbance entry is given as “Full loss of absorbance”. The IC50 against mushroom tyrosinase is more than 10000 µM. The EC50 in data set [2] came to 33 µM.

For `CCCCC(CC)COC(=O)C=Cc1ccc(OC)cc1` (stereo not drawn) [Octinoxate, octinoxate, reference compound], the Loss of absorbance in data set [1] was found to be 26.0%. In addition, the Maximal absorbance in data set [3] is reported as 0.24.

`COc1cc(CCC(=O)c2ccc(O)c(OC)c2)ccc1O` [b10, 4,4′-dihydroxy-3,3′-dimethoxydihydrochalcone]: the Loss of absorbance in data set [1] came to 20%. The compound further displayed a half-inhibitory concentration (IC50) on mushroom tyrosinase of 270 ± 10 µM. The Maximal absorbance in data set [3] is listed as 0.13. In data set [2], the EC50 was determined as 29.5 µM.

Consider `Cc1cc(C(C)(C)C)c(O)c(C(C)(C)C)c1` [BHT, butylated hydroxytoluene, reference compound], for which the EC50 in data set [2] stood at 28 µM.

Turning to `COc1cc(C(=O)CCc2ccc(O)cc2)cc(OC)c1O` [b9, 4,4′-dihydroxy-3′,5′-dimethoxy-dihydrochalcone], in data set [1], the Loss of absorbance is 67.7%. Also, at mushroom tyrosinase, the IC50 was more than 10000 µM. The compound further returned a Maximal absorbance in data set [3] of 0.19. Further, in data set [2], the 50% effective concentration (EC50) was more than 80 µM.

In the case of `O=C(/C=C/c1ccc(O)c(O)c1)c1ccc(O)cc1` [a2, 3,4,4′-trihydroxy-chalcone], the concentration for a half-maximal effect (EC50) in data set [2] is 31.5 µM.

With `O=C(CCc1ccc(O)cc1)c1c(O)cc(O)cc1O` [Phloretin, phloretin], the Loss of absorbance in data set [1] amounted to 5.9%. Moreover, on mushroom tyrosinase, the IC50 is more than 10000 µM and the “IC50 for mushroom tyrosinase inhibition” value is recorded as “did not exhibit tyrosinase inhibition activity”. For the same compound, in data set [3], the Maximal absorbance worked out at 0.23. The EC50 in data set [2] came out at 24.5 µM.

Consider `COc1cc(CCC(=O)c2ccc(O)cc2)ccc1O` [b5, 4,4′-dihydroxy-3-methoxy-dihydrochalcone], for which the midpoint of inhibition against mushroom tyrosinase, the IC50, lay at 500 ± 30 µM. For the same compound, the EC50 in data set [2] stood at 28 µM.

As for `O=C(/C=C/c1ccc(O)c(O)c1)c1ccc(O)c(O)c1` [a4, 3,3′,4,4′-tetrahydroxy-chalcone], in data set [1], the Loss of absorbance amounted to 75.7%. The Maximal absorbance in data set [3] came out at 0.47. Also, the EC50 in data set [2] was 8 µM.

The compound `COc1cc(C(=O)CCc2ccc(O)c(O)c2)ccc1O` [b7, 3,4,4′-trihydroxy-3-methoxy-dihydrochalcone] came in with a 50% inhibitory concentration (IC50) against mushroom tyrosinase of more than 10000 µM. Further, in data set [2], the 50% effective concentration (EC50) amounted to 32 µM.

The compound `COc1cc(CCC(=O)c2cc(OC)c(O)c(OC)c2)cc(OC)c1O` [b12, 4,4′-dihydroxy-3,3′,5,5′-tetramethoxy-dihydrochalcone] showed an IC50 on mushroom tyrosinase of more than 10000 µM. Besides, the 50% effective concentration (EC50) in data set [2] worked out at 42.5 µM.

With `O=C(CCc1ccc(O)c(O)c1)c1ccc(O)cc1` [b2, 3,4,4′-trihydroxy-dihydrochalcone], in data set [1], the Loss of absorbance is recorded as 11.4%. Further, at mushroom tyrosinase, the IC50 is more than 10000 µM. The same compound yielded a Maximal absorbance in data set [3] of 0.21. Also, the EC50 in data set [2] was 35 µM.

In data set [1], “3,4,4′-trihydroxy-3-methoxy-chalcone [a7]” registered a Loss of absorbance of 46.2%. Moreover, at mushroom tyrosinase, half-maximal inhibition (IC50) was put at 2300 ± 100 µM. In data set [3], this compound displayed a Maximal absorbance of 0.38. Besides, the EC50 in data set [2] worked out at 31.5 µM.

As to `COc1cc(/C=C/C(=O)c2ccc(O)c(O)c2)ccc1O` [a8, 3′,4,4′-trihydroxy-3-methoxy-chalcone], the IC50 on mushroom tyrosinase is more than 10000 µM. In data set [2], the EC50 came out at 9.5 µM.

In data set [1], `O=C(CCc1ccc(O)cc1)c1ccc(O)cc1` [b1, 4,4′-dihydroxy-dihydrochalcone] had a Loss of absorbance of 13.8%. Besides, the IC50 at mushroom tyrosinase is more than 10000 µM. In addition, the Maximal absorbance in data set [3] turned out to be 0.23. Moreover, in data set [2], the EC50 is more than 80 µM.

Regarding `COc1cc(C(=O)/C=C/c2cc(OC)c(O)c(OC)c2)ccc1O` [a11, 4,4′-dihydroxy-3,3′,5-trimethoxy-chalcone], on mushroom tyrosinase, the IC50 turned out to be 7900 ± 400 µM. In addition, the Maximal absorbance in data set [3] stood at 0.27. Moreover, the 50% effective concentration (EC50) in data set [2] was 45 µM.

With `COc1ccc(O)c(C(C)(C)C)c1` [BHA, butylated hydroxyanisol, reference compound], the EC50 in data set [2] came to 18.5 µM.

In turn, `COc1cc(CCC(=O)c2ccc(O)c(O)c2)ccc1O` [b8, 3′,4,4′-trihydroxy-3-methoxy-dihydrochalcone] returned a Loss of absorbance in data set [1] of 0.1%. Besides, on mushroom tyrosinase, inhibition was half-maximal at 70 ± 10 µM (IC50). For the same compound, the EC50 in data set [2] was 11 µM.

`COc1cc(C(=O)/C=C/c2ccc(O)cc2)cc(OC)c1O` [a9, 4,4′-dihydroxy-3′,5′-dimethoxy-chalcone] returned an IC50 against mushroom tyrosinase of 130 ± 10 µM. Further, the half-maximal effective concentration (EC50) in data set [2] is more than 80 µM.

At mushroom tyrosinase, `COc1cc(/C=C/C(=O)c2cc(OC)c(O)c(OC)c2)cc(OC)c1O` [a12, 4,4′-dihydroxy-3,3′,5,5′-tetramethoxy-chalcone] showed an IC50 of more than 10000 µM. Also, the 50% effective concentration (EC50) in data set [2] was determined as 43 µM.

As for `COc1cc(/C=C/C(=O)c2ccc(O)cc2)ccc1O` [a5, 4,4′-dihydroxy-3-methoxy-chalcone], inhibition on mushroom tyrosinase was half-maximal at 2300 ± 100 µM (IC50). Moreover, the EC50 in data set [2] stood at 71 µM.
